Experimental data as given in article PMC9495004, “In Vitro Biological Activity of Natural Products from the Endophytic Fungus Paraboeremia selaginellae against Toxoplasma gondii” (Antibiotics, 2022).
≈ marks a conversion by molar mass, not a printed value. Like-named read-outs stand apart in the source and are kept apart here.

Key:
T. gondii strain ME49 = test: T. gondii proliferation assay (3H-uracil incorporation); format: cell-based, Toxoplasma gondii
[1] = MTT cell viability assay against Hs27 cells; format: cell-based; details: human, Hs27 fibroblast cells, >100 µM indicates no activity, read-out: CC50 against human fibroblasts Hs27
Method: Figure 4 Effect of the natural products on the metabolic activity of Hs27 cells via MTT assay. Hs27 cells were plated in 96-well plates and grown to confluence prior to incubation at 37 °C for 24 h with the natural products in the concentration range of […]. The cultures were incubated with 10 μL of the 12 mM MTT stock solution for approximately 4 h. Afterwards, 100 μL of SDS dissolved in HCl was added to each well and incubated again for 4 h at 37 °C. Finally, the absorbance was measured at 570 nm by spectrophotometry. Values shown in (A–F) represent the means of three independent experiments each done in duplicate (n = 6) ± SEM. Cytotoxicity in Hs27 cells of NK-A 17e233 (A); 1,2-benzenediol, 3-(4-hydroxy-2-methoxy-6-methylphenoxy)-5-methyl-(ACI) (B); cyperin (C); ES-242-1 (D); ES-242-3 (E); 5S,6S-phomalactone (F).
The 3-[4,5-dimethylthiazole-2-yl]-2,5-diphenyltetrazolium bromide (MTT) test was used to assess cell viability of the isolated active compounds against Hs27 cells. The MTT assay is a colorimetric reaction based on the enzymatic reduction of MTT to MTT-formazan, which is catalyzed by mitochondrial succinate dehydrogenase.
In brief, Hs27 cells were seeded 96-well plates in a monolayer in Iscove’s modified Dulbecco’s medium (Gibco–Thermo Fisher Scientific, Braunschweig, Germany) and incubated at 37 °C with different concentrations of the tested natural products (1.56, 3,12, 6.25, 12,5, 25, 50, 100 µM) in the culture media. Staurosporine ([…], 0.25, 0.5, 1 µM), a well-known cytotoxicity-inducing kinase inhibitor [40], untreated Hs27 cells, and DMSO were used as controls. After 24 h, the medium of the culture was removed and replaced with 100 μL of DMEM without red phenol (Gibco–Thermo Fisher Scientific, Braunschweig, Germany) plus 10% heat-inactivated fetal bovine serum (Invitrogen, Karlsruhe, Germany), and […] 2-mercaptoethanol (Gibco–Thermo Fisher Scientific, Braunschweig, Germany). Afterwards, the 12 mM MTT solution was added to each well according to the manufacturer’s instruction (Vybrant MTT Cell Proliferation Assay Kit, Thermo Fisher Scientific, Braunschweig, Germany). The OD value of each well was assayed at the wavelength of 570 nm on a microplate reader (TECAN Sunrise, Männedorf, Switzerland). The 50% cytotoxic concentration (CC50 values) of the tested natural products on Hs27 cells was calculated and all data were analyzed using Prism GraphPad version 9.2.0 software.

[2] = tested on: THP-1 (human monocytic leukemia cell line); test: Resazurin cytotoxicity assay, THP-1; format: cell-based; details: for IC50: Homo sapiens, read-out: Mean IC50 THP1
Method: (§1) Figure 5 Effect of the natural products on the viability of THP-1, Huh-7, and HEK-293 cells. Cytotoxic effect of NK-A17e233 (A); 1,2-benzenediol,3-(4-hydroxy-2-methoxy-6-methylphenoxy)-5-methyl-(ACI) (B); cyperin (C); ES-242-1 (D); ES-242-3 (E); 5S,6S-phomalactone (F) against the human cell lines THP-1, Huh-7, and HEK-293 as determined by resazurin assay. 100% growth control DMSO, 0% growth control cycloheximide. Values represent the means of triplicates ± SEM.
(§2) The cytotoxicity study was carried out using the THP-1 (human monocytic leukemia cell line), Huh-7 (Human liver carcinoma cell line), and HEK293 (human embryonic kidney cell line) cell lines as described before. The THP-1 cells were cultured using RPMI 1640 medium containing 2 mM L-glutamine and supplemented with 10% fetal calf serum (FCS) and 1% sodium pyruvate. Huh-7 cells were cultured using a 1:1 mixture of RPMI 1640 medium containing 2 mM L-glutamine and 10% FCS medium and DMEM containing 10% FCS and 1% sodium pyruvate. The HEK-293 cells were cultured with DMEM including 2 mM L-glutamine and supplemented with 1% NE amino acids, 1% 1.0 mM sodium pyruvate and 10% FCS. All three cell lines were then incubated at 37 °C in an atmosphere of 5% CO2 under humid conditions for 2 weeks while renewing the medium twice weekly. Subsequently, the cells were suspended and adjusted to a density of 2 × 10^5 cells/mL. In a 96-well flat-bottom microtiter plate, the cells were adjusted to a total volume of 100 μL containing 2-fold serial dilutions of the tested compounds A–F ranging from 100 to 1.56 μM. Cycloheximide (4, 2, 1, 0.5, 0.25, 0.13, 0.06, 0.03 µg/mL) was used as a positive control. After an incubation time of 48 h at 37 °C in an atmosphere of 5% CO2 under humid conditions, 10 μL resazurin solution (100 μg/mL) was added to each well and incubated for another 4 h. The fluorescence was then quantified using a Tecan Infinite 200pro microplate reader (excitation 540 nm, emission 590 nm). The residual growth was calculated relative to non-inoculated conditions (0% growth) and controls treated with DMSO (100% growth).

[3] = tested on: Huh-7 (Human liver carcinoma cell line); test: Resazurin cytotoxicity assay, Huh-7; format: cell-based; details: for IC50: Homo sapiens, read-out: Mean IC50 Huh-7
Method: as §1, §2

[4] = tested on: HEK293 (human embryonic kidney cell line); test: Resazurin cytotoxicity assay, HEK-293; format: cell-based; details: for IC50: Homo sapiens, read-out: Mean IC50 HEK-293
Method: as §1, §2

S. aureus ATCC 700699 = test: Minimal inhibitory concentration assay (BacTiter Glo), S. aureus; format: cell-based; details: Staphylococcus aureus, read-out: MIC90 S. aureus ATCC 700699
P. aeruginosa ATCC 87110 = test: Minimal inhibitory concentration assay (BacTiter Glo), P. aeruginosa; format: cell-based; details: Pseudomonas aeruginosa, read-out: MIC90 P. aeruginosa ATCC 87110
M. tuberculosis H37Rv = test: Minimal inhibitory concentration, resazurin reduction assay, M. tuberculosis; format: cell-based, Mycobacterium tuberculosis; details: for MIC90: Mycobacterium tuberculosis, H37RV, 120 h, read-out: MIC90 M. tuberculosis H37Rv
Plasmodium falciparum = details: cited from earlier work
[5] = Toxoplasma gondii, HS27, Hs27 host cells, 48 h treatment, 3H-uracil incorporation, read-out: IC50 against T. gondii strain ME49 (proliferation)
[6] = THP-1, resazurin assay, 48 h, >100 µM indicates no activity
[7] = Huh-7, resazurin assay, 48 h, >100 µM indicates no activity
[8] = HEK293, resazurin assay, 48 h, >100 µM indicates no activity
[9] = ATCC700699, 24 h, >100 µM indicates no activity
[10] = ATCC87110, 24 h, >100 µM indicates no activity
[11] = 5 days, resazurin, >100 µM indicates no activity
[12] = Toxoplasma gondii, HS27, read-out: IC50 against T. gondii strain ME49 (proliferation)
[13] = reported activity, read-out: IC50 against P. falciparum
[14] = resazurin assay, 48 h, >100 µM indicates no activity
[15] = Hs27 host cells, 48 h treatment, 3H-uracil incorporation

Row | SMILES | IC50 (T. gondii strain ME49; [5]) [µM] | CC50 at 24 h [1] [µM] | IC50 [2, 6] [µM] | IC50 [3, 7] [µM] | IC50 [4, 8] [µM] | MIC90 (S. aureus ATCC 700699; [9]) [µM] | MIC90 (P. aeruginosa ATCC 87110; [10]) [µM] | MIC90 M. tuberculosis H37Rv (M. tuberculosis H37Rv; [11]) | MIC90 (M. tuberculosis H37Rv; [11]) [µM] | IC50 (T. gondii strain ME49; [12]) [µM] | further results
1 | COc1cc(O)cc(C)c1Oc1cc(C)cc(O)c1O [B, 3-(4-Hydroxy-2-methoxy-6-methylphenoxy)-5-methylbenzene-1,2-diol] | 19.4 | > 100 | > 100 | > 100 | > 100 | > 100 | > 100 | no inhibitory effect | > 100 | – | IC50 (T. gondii strain ME49; Hs27 host cells, 48 h treatment, 3H-uracil incorporation, read-out: IC50 against T. gondii strain ME49 (proliferation)): 22.2 µM
2 | COc1cc(C)c(Oc2cc(C)cc(O)c2O)c(O)c1 [Compound A, NK-A 17e233] | 5.75 | > 100 | > 100 | > 100 | > 100 | > 100 | > 100 | no inhibitory effect | > 100 | – | –
3 | COc1cc(C)c(Oc2cc(C)cc(O)c2)c(O)c1 [Compound C, cyperin] | – | > 100 | – | – | – | – | – | no inhibitory effect | – | 27.2 | IC50 ([2]; THP-1, 48 h): > 100 µM; IC50 ([3]; Huh-7, 48 h): > 100 µM; IC50 ([4]; HEK293, 48 h): > 100 µM; MIC90 (S. aureus ATCC 700699; ATCC700699, 24 h): > 100 µM; MIC90 (P. aeruginosa ATCC 87110; ATCC87110, 24 h): > 100 µM; MIC90 (M. tuberculosis H37Rv): > 100 µM
4 | COc1cc(OC)c2c(O)c3c(c(-c4c5c(c(O)c6c(OC)cc(OC)cc46)CO[C@@H](C)[C@H]5OC(C)=O)c2c1)C[C@@H](C)OC3 [D, ES-242-1] | 7.38 | > 100 | > 100 | > 100 | 93.8 | > 100 | > 100 | – | 50 (≈ 30.2 µg/mL) | – | IC50 (Plasmodium falciparum; [13]): 8.44 µM
5 | COc1cc(OC)c2c(O)c3c(c(-c4c5c(c(O)c6c(OC)cc(OC)cc46)CO[C@@H](C)[C@H]5OC(C)=O)c2c1)C(O)[C@@H](C)OC3 (stereo partly shown) [E, ES-242-3] | 18 | > 100 | 21.9 | 13 | 16.9 | > 100 | > 100 | – | 100 (≈ 62.1 µg/mL) | – | Mean IC50 THP1 [2, 14]: moderate cytotoxic activity; Mean IC50 Huh-7 [3, 14]: moderate cytotoxic activity; Mean IC50 HEK-293 [4, 14]: moderate cytotoxic activity; IC50 (Plasmodium falciparum; [13]): 13.2 µM
6 | C/C=C/[C@@H]1OC(=O)C=C[C@@H]1O [F, 5S,6S-phomalactone] | – | 81 | 24.3 | 100 | 66.9 | > 100 | 100 (≈ 15.4 µg/mL) | no inhibitory effect | – | 5.13 | Mean IC50 Huh-7 [3, 14]: no or weak cytotoxic effects; Mean IC50 HEK-293 [4, 14]: no or weak cytotoxic effects; MIC90 (M. tuberculosis H37Rv): > 100 µM; IC50 (Plasmodium falciparum; previous report, read-out: IC50 against Plasmodium falciparum): 84.3 µM
7 | Cc1cc(O)c(C)c(=O)o1 [G, methyltriaceticlactone] | – | – | – | – | – | > 100 | > 100 | no inhibitory effect | > 100 | – | IC50 against T. gondii strain ME49 (proliferation) (T. gondii strain ME49; [15]): Not active
8 | CCC(C)CC(C)/C=C(C)/C=C/CC(C)C(O)C(C)/C=C(C)/C=C/C(O)C(C)(C)c1cc(O)c([C@H]2O[C@@H](CO)C[C@@H](O)[C@@H]2O)c(=O)o1 (stereo partly shown) [H, S 39163/F-1] | – | – | – | – | – | > 100 | > 100 | no inhibitory effect | > 100 | – | IC50 against T. gondii strain ME49 (proliferation) (T. gondii strain ME49; [15]): Not active
9 | CCc1nc(N)nc(N)c1-c1ccc(Cl)cc1 [pyrimethamine, reference compound] | – | 44 | – | – | – | – | – | – | – | 0.06 | –
